Assay results as given in the CheMixHub viscosity set.
Where “and” joins values, the source holds several entries; their conditions need not be identical. Equal entries are not always repeated.

Columns and labels:
[1] = xn = mol fraction of the nth substance listed; conditions: 101 kPa

CC(C)(C)O
Conditions | viscosity
293.15 K, 101 kPa | 3.925 mPa·s
298 K, 101 kPa | 3.41 mPa·s and 4.324 mPa·s
298.15 K, 100 kPa | 4.396 mPa·s
303 K, 101.33 kPa | 3.268 mPa·s
303.15 K, 101.3 kPa | 3.318 mPa·s and 3.318 mPa·s
303.2 K, 101.33 kPa | 3.333 mPa·s and 3.333 mPa·s
305 K, 101 kPa | 3.076 mPa·s
308 K, 101 kPa | 2.333 mPa·s
308.15 K, 101.3 kPa | 2.55 mPa·s
308.15 K, 101.33 kPa | 2.644 mPa·s and 2.595 mPa·s and 2.546 mPa·s
313 K, 101 kPa | 2.102 mPa·s
313.15 K, 101.3 kPa | 2.047 mPa·s
318 K, 101 kPa | 1.702 mPa·s
318.15 K, 101.33 kPa | 1.889 mPa·s and 1.726 mPa·s
323 K, 101 kPa | 1.404 mPa·s
323.15 K, 100 kPa | 1.418 mPa·s
323.15 K, 101 kPa | 1.421 mPa·s and 1.423 mPa·s and 1.415 mPa·s

CCNCC
Conditions | viscosity
293.15 K, 100 kPa | 0.32 mPa·s and 0.32 mPa·s
293.15 K, 101.33 kPa | 0.32 mPa·s
298.15 K, 101 kPa | 0.29 mPa·s and 0.265 mPa·s
303.15 K, 101.33 kPa | 0.288 mPa·s
308.15 K, 101 kPa | 0.2466 mPa·s
308.15 K, 101.33 kPa | 0.274 mPa·s
313.15 K, 100 kPa | 0.26 mPa·s and 0.26 mPa·s
318.15 K, 100 kPa | 0.248 mPa·s
323.15 K, 100 kPa | 0.237 mPa·s and 0.237 mPa·s

COP(=O)([O-])OC.Cn1cc[n+](C)c1
viscosity [mPa·s]
Conditions | 293.15 K | 298.15 K | 303.15 K | 308.15 K | 313.15 K | 318.15 K | 323.15 K
101 kPa | 415.9 | 290.8 | 210.1 | 155.6 | 119.2 | 92.77 | 74.24
101.33 kPa | – | – | – | 139.5 | – | – | –

C[NH+](CCO)CCO.O=C[O-]
101 kPa
Conditions | viscosity [mPa·s]
293.15 K | 708.5
298.15 K | 491.4
303.15 K | 350
313.15 K | 190
323.15 K | 124.5

Nc1ccccc1
Conditions | viscosity
293.15 K, 100 kPa | 4.407 mPa·s and 4.41 mPa·s
293.15 K, 101 kPa | 4.28 mPa·s and 4.28 mPa·s
293.15 K, 101.33 kPa | 4.404 mPa·s
293.35 K, 101 kPa | 4.26 mPa·s
298.15 K, 100 kPa | 3.737 mPa·s
298.15 K, 101.3 kPa | 3.61 mPa·s
298.15 K, 101.32 kPa | 3.773 mPa·s
298.15 K, 101.33 kPa | 3.62 mPa·s
302.4 K, 101 kPa | 5.537 mPa·s
302.75 K, 101 kPa | 3.15 mPa·s
303 K, 101 kPa | 3.097 mPa·s
303 K, 101.3 kPa | 3.111 mPa·s
303 K, 101.33 kPa | 3.036 mPa·s and 3.035 mPa·s
303.15 K, 100 kPa | 3.197 mPa·s and 3.029 mPa·s
303.15 K, 101.33 kPa | 3.078 mPa·s
308 K, 101 kPa | 2.663 mPa·s
308 K, 101.3 kPa | 2.691 mPa·s
308.1 K, 101 kPa | 2.79 mPa·s
308.15 K, 100 kPa | 2.78 mPa·s
308.15 K, 101 kPa | 2.857 mPa·s and 2.639 mPa·s
308.15 K, 101.3 kPa | 2.7 mPa·s
308.15 K, 101.33 kPa | 2.615 mPa·s
313 K, 101 kPa | 2.329 mPa·s
313 K, 101.3 kPa | 2.338 mPa·s
313.15 K, 100 kPa | 2.445 mPa·s and 2.305 mPa·s and 2.49 mPa·s
313.15 K, 101.33 kPa | 2.327 mPa·s
318 K, 101 kPa | 2.057 mPa·s
318 K, 101.3 kPa | 2.054 mPa·s
318.15 K, 100 kPa | 2.159 mPa·s
318.15 K, 101 kPa | 2.157 mPa·s and 2.047 mPa·s and 2.113 mPa·s
323.15 K, 100 kPa | 1.927 mPa·s
323.15 K, 101 kPa | 1.806 mPa·s
323.15 K, 101.3 kPa | 1.87 mPa·s
323.15 K, 101.33 kPa | 2.01 mPa·s

CCCBr + c1ccccc1
[1], 308.15 K
Conditions | viscosity [mPa·s]
x2 = 0.1021 | 0.4369
x2 = 0.2992 | 0.4373
x2 = 0.3987 | 0.4413
x2 = 0.5041 | 0.4461
x2 = 0.6028 | 0.4525
x2 = 0.7033 | 0.4619
x2 = 0.8414 | 0.478
x2 = 0.8979 | 0.4898

CCCC(=O)OC + c1ccccc1
viscosity [mPa·s], [1]
Conditions | x2 = 0.1316 | x2 = 0.1994 | x2 = 0.2999 | x2 = 0.3974 | x2 = 0.5001 | x2 = 0.6023 | x2 = 0.7044 | x2 = 0.7999 | x2 = 0.8939
298.15 K | 0.536 | 0.534 | 0.535 | 0.536 | 0.54 | 0.544 | 0.551 | 0.561 | 0.575
313.15 K | 0.451 | 0.45 | 0.45 | 0.451 | 0.453 | 0.456 | 0.46 | 0.466 | 0.476

ClCc1ccccc1 + c1ccccc1
viscosity [mPa·s], [1]
Conditions | x2 = 0.1988 | x2 = 0.3583 | x2 = 0.489 | x2 = 0.5982 | x2 = 0.6907 | x2 = 0.7701 | x2 = 0.839 | x2 = 0.8993 | x2 = 0.9526
298.15 K | 0.9856 | 0.8952 | 0.8251 | 0.7742 | 0.7152 | 0.6823 | 0.6598 | 0.6485 | 0.6042
303.15 K | 0.9782 | 0.8724 | 0.8024 | 0.7153 | 0.6942 | 0.6324 | 0.6248 | 0.5923 | 0.5634
308.15 K | 0.9265 | 0.8258 | 0.7865 | 0.7026 | 0.6294 | 0.6058 | 0.5861 | 0.5592 | 0.5389
313.15 K | 0.9357 | 0.8562 | 0.7548 | 0.6994 | 0.6241 | 0.5826 | 0.5742 | 0.5486 | 0.5095
